Patent US11214540B2, “Compositions for treating neurodegenerative diseases” (COGNITION THERAPEUTICS, INC., priority 2017, dated 2022)

assay: log P; assay type: physicochemical; conditions: not given
Description: The term “log P” refers to the partition coefficient of a compound. The partition coefficient is the ratio of concentrations of un-ionized compound in each of two solution phases, for example, octanol and water. To measure the partition coefficient of ionizable solute compounds, the pH of the aqueous phase is adjusted such that the predominant form of the compound is un-ionized. The logarithm of the ratio of concentrations of the un-ionized solute compound in the solvents is called log P. The log P is a measure of lipophilicity. For example, log Poct/wat=log([solute]octanol/[solute]un-ionized,water).
Combined Results for particular compounds described herein, with respect to log P, membrane trafficking (uM), sigma-2 receptor affinity, sigma-1 receptor affinity microsomal stability in mouse liver microsomes (MLM) (t1/2, min), t1/2 normalized to CT)10914 and in vitro toxicity potassium channel hERG (IC50, nM) are provided in Table 1: […]

| log P | SMILES |
| --- | --- |
| 4.03 | COc1cc(CCC(C)(C)N2Cc3cccc(C(=O)N4CCN(C(=O)[C@@H](N)Cc5ccccc5)CC4)c3C2)ccc1O [Compound 259] |
| 5.37 | CCOC(=O)C1CCN(C(C=C(C)C)CC(C)(C)c2ccc(F)cc2)CC1 (stereo not drawn) [Compound 267] |
| 5.68 | COC[C@H]1CCCN1[C@H](C=C(C)C)CC(C)(C)c1ccc(Cl)cc1 [Compound 235] |
| 3.37 | CC(C)=CC(CC(C)(C)c1ccc(F)cc1)N1CCN(S(C)(=O)=O)CC1 (stereo not drawn) [Compound 154] |
| 4.64 | COc1ccc(C(C)(C)CC(c2ccccc2)N2CCOCC2)cc1 (stereo not drawn) [Compound 118] |
| 4.89 | CC(C)(CCN1CCC(C2CCOCC2)CC1)c1ccc(Cl)cc1 [Compound 193] |
| 4.06 | COC(=O)C1CCN(CCC(C)(C)c2ccc(Cl)cc2)CC1 [Compound 291] |
| 3.62 | COC(=O)C1CCCN1CCC(C)(C)c1ccc(F)cc1 (stereo not drawn) [Compound 320] |
| 3.98 | CC(C)=CC(CC(C)(C)c1ccc(Cl)cc1)N1CCNC(=O)C1 (stereo not drawn) [Compound 224] |
| 4.96 | CC(C)=CC(NCC(C)C)C(C)(C)Oc1ccc(F)cc1 (stereo not drawn) [Compound 176] |
| 6.46 | CC(C)=CC(CC(C)(C)c1ccc(C(F)(F)F)cc1)N1CCN(C(=O)c2ccccc2)CC1 (stereo not drawn) [Compound 155] |
| 4.28 | CC(C)(CCN1CCC(C2CCOCC2)CC1)c1ccccc1 [Compound 313] |
| 5.11 | CCOC(=O)C1CCN(C(C)CC(C)(C)c2ccc(C(F)(F)F)cc2)CC1 (stereo not drawn) [Compound 277] |
| 3.38 | CC(C)(CCN1CCC(CCO)CC1)c1ccccc1 [Compound 304] |
| 6.47 | CC(C)=CC(CC(C)(C)c1ccc(C(F)(F)F)cc1)N1CCN(C(=O)OCC(C)C)CC1 (stereo not drawn) [Compound 209] |
| 5.15 | CC(C)=CC(CC(C)(C)c1ccc(OC(C)(C)C)cc1)N1CCC(C)(O)CC1 (stereo not drawn) [Compound 169] |
| 3.62 | CC(C)(CCN1CCC(CO)CC1)c1ccc(Cl)cc1 [Compound 283] |
| 4.58 | COCCOCCC1CCN(CCC(C)(C)c2ccc(Cl)cc2)CC1 [Compound 303] |
| 3.95 | CCOC(=O)C1CCN(CCC(C)(C)c2ccc(F)cc2)CC1 [Compound 322] |
| 2.48 | COc1cc(CCC(C)(C)N2Cc3cccc(C(=O)N4CCN(C(=O)[C@H](C)O)CC4)c3C2)ccc1O [Compound 281] |
| 6.24 | CC(C)=CC(CC(C)(C)c1ccc(C(F)(F)F)cc1)N1CCC(C)(OC(=O)NC(C)C)CC1 (stereo not drawn) [Compound 228] |
| 4.87 | CC(C)=CC(CC(C)(C)c1ccc(OC(C)(C)C)cc1)N1CCC(O)CC1 (stereo not drawn) [Compound 170] |
| 3.75 | CC(C)=CC(CC(C)(C)c1ccc(F)cc1)N1CCN(C)C(=O)C1 (stereo not drawn) [Compound 203] |
| 4.85 | CCOC(=O)N1CCN(C(C=C(C)C)CC(C)(C)c2ccc(F)cc2)CC1 (stereo not drawn) [Compound 196] |
| 4.26 | CC(C)=CC(CC(C)(C)c1ccc(C(F)(F)F)cc1)N1CCNC(=O)C1 (stereo not drawn) [Compound 206] |
| 6.28 | COCCOCCC1CCN([C@@H](C=C(C)C)CC(C)(C)c2ccc(C(F)(F)F)cc2)CC1 [Compound 264] |
| 5.91 | COc1ccc(C(C)(C)CC(c2ccccc2)N2CCC(C3CCOCC3)CC2)cc1 (stereo not drawn) [Compound 122] |

| log P | SMILES |
| --- | --- |
| 3.2 | COC1CCN(CCC(C)(C)c2ccccc2)CC1 [Compound 310] |
| 4.62 | COC1CCN(C(C=C(C)C)CC(C)(C)c2ccccc2)CC1 (stereo not drawn) [Compound 202] |
| 4.85 | COc1cc(CCC(C)(C)N2Cc3cccc(C(=O)N4CCN(C(=O)C(Cc5ccccc5)N(C)C)CC4)c3C2)ccc1O (stereo not drawn) [Compound 271] |
| 5.16 | CC(C)=CC(CC(C)(C)c1ccc(N2CCOCC2)cc1)N1CCC2(CCOCC2)CC1 (stereo not drawn) [Compound 147] |
| 3.65 | COC[C@@H]1CCCN1CCC(C)(C)c1ccccc1 [Compound 302] |
| 5.62 | CC(C)=CC(CC(C)(C)c1ccccc1)N1CCC(O)(c2ccccc2)CC1 (stereo not drawn) [Compound 220] |
| 3.45 | COC(=O)C1CCN(CCC(C)(C)c2ccccc2)CC1 [Compound 295] |
| 5.13 | CC(C)=C[C@@H](CC(C)(C)c1ccc(C(F)(F)F)cc1)N1CCC(C)(O)CC1 [Compound 266] |
| 7.1 | CC(C)=CC(CC(C)(C)c1ccc(C(F)(F)F)cc1)N1CCC(CCOC(C)C)CC1 (stereo not drawn) [Compound 164] |
| 5.31 | CC(C)=C[C@H](CC(C)(C)c1ccc(C(F)(F)F)cc1)N1CCC[C@@H]1CO [Compound 243] |
| 3.48 | COC(=O)[C@H]1CCCN1CCC(C)(C)c1ccccc1 [Compound 294] |
| 4.13 | COCCNC(C=C(C)C)C(C)(C)Oc1ccc(Cl)cc1 (stereo not drawn) [Compound 175] |
| 3.52 | COCCNC(C=C(C)C)C(C)(C)Oc1ccccc1 (stereo not drawn) [Compound 172] |
| 3.01 | CC(C)(CCN1CCC(CO)CC1)c1ccccc1 [Compound 308] |
| 5.1 | COC1CN(C(C=C(C)C)CC(C)(C)c2ccc(Cl)cc2)C1 (stereo not drawn) [Compound 167] |
| 6.11 | CCOC(=O)C1CCN(C(C=C(C)C)CC(C)(C)c2ccc(C(F)(F)F)cc2)CC1 (stereo not drawn) [Compound 286] |
| 3.37 | CC(C)(CCN1CC[C@@H](O)C1)c1ccc(C(F)(F)F)cc1 [Compound 315] |
| 6.01 | CC(C)=CC(CC(C)(C)c1ccc(Cl)cc1)N1CCN(C(=O)OC(C)(C)C)CC1 (stereo not drawn) [Compound 194] |
| 4.14 | CC(C)=CC(CC(C)(C)c1ccc(N2CCOCC2)cc1)N1CCC(C)(O)CC1 (stereo not drawn) [Compound 148] |
| 6.47 | CC(C)(CC(c1ccccc1)N1CCCCC1)c1ccc(Cl)cc1 (stereo not drawn) [Compound 117] |
| 5.7 | CC(C)=CC(CC(C)(C)c1ccccc1)N1CCC(C2CCOCC2)CC1 (stereo not drawn) [Compound 204] |
| 7.65 | CCCCC1(OC(=O)NC(C)C)CCN(C(C=C(C)C)CC(C)(C)c2ccc(C(F)(F)F)cc2)CC1 (stereo not drawn) [Compound 216] |
| 3.8 | COC[C@H]1CCCN1CCC(C)(C)c1ccc(F)cc1 [Compound 318] |
| 5.84 | CCOC(=O)C1CCN(C(C=C(C)C)CC(C)(C)c2ccc(Cl)cc2)CC1 (stereo not drawn) [Compound 248] |
| 5.5 | CC(C)=CC(CC(C)(C)c1ccc(F)cc1)N1CCC(C)(OC(=O)NC(C)C)CC1 (stereo not drawn) [Compound 215] |
| 3.54 | CC(C)=CC(CC(C)(C)c1ccc(S(C)(=O)=O)cc1)NCC1CCOCC1 (stereo not drawn) [Compound 88] |
| 3.36 | CC(C)=CC(CC(C)(C)c1ccc(F)cc1)N1CCN(S(=O)(=O)N(C)C)CC1 (stereo not drawn) [Compound 195] |

| log P | SMILES |
| --- | --- |
| 6.67 | CC(C)(CC(c1ccccc1)N1CCC(C2CCOCC2)CC1)c1ccc(Cl)cc1 (stereo not drawn) [Compound 119] |
| 2.62 | COc1cc(CCC(C)(C)N2Cc3cccc(C(=O)N4CCN(C(=O)CN(C)C)CC4)c3C2)ccc1O [Compound 258] |
| 5.67 | CCCCC1(O)CCN(C(C=C(C)C)CC(C)(C)c2ccccc2)CC1 (stereo not drawn) [Compound 223] |
| 4.83 | CCOC(=O)C1CCN(C(C)CC(C)(C)c2ccc(Cl)cc2)CC1 (stereo not drawn) [Compound 268] |
| 4.41 | CCOC(=O)C1CCN(CCC(C)(C)c2ccc(Cl)cc2)CC1 [Compound 287] |
| 6.17 | CC(C)=CC(CC(C)(C)c1ccc(OC(C)(C)C)cc1)N1CCC2(CCOCC2)CC1 (stereo not drawn) [Compound 168] |
| 7.37 | CCCCC1(OC(=O)NC(C)C)CCN(C(C=C(C)C)CC(C)(C)c2ccc(Cl)cc2)CC1 (stereo not drawn) [Compound 225] |
| 4.47 | COCCCC1CCN(CCC(C)(C)c2ccccc2)CC1 [Compound 325] |
| 1.63 | COc1cc(CCC(C)(C)N2Cc3cccc(C(=O)N4CCN(C(=O)CNC(C)=O)CC4)c3C2)ccc1O [Compound 279] |
| 3.35 | COC(=O)N1CCN(C(=O)c2cccc3c2CN(C(C)(C)CCc2ccc(O)c(OC)c2)C3)CC1 [Compound 272] |
| 6.27 | CCCCC1(O)CCN(C(C=C(C)C)CC(C)(C)c2ccc(Cl)cc2)CC1 (stereo not drawn) [Compound 214] |
| 4.61 | COCCCC1CCN(CCC(C)(C)c2ccc(F)cc2)CC1 [Compound 321] |
| 5.13 | CC(C)=C[C@H](CC(C)(C)c1ccc(C(F)(F)F)cc1)N1CCC(C)(O)CC1 [Compound 265] |
| 5.81 | CC(C)(CCN1CCC(C)(c2ccccc2)CC1)c1ccccc1 [Compound 297] |
| 5.66 | CC(C)(CC(NCC1CCOCC1)c1ccccc1)c1ccc(Cl)cc1 (stereo not drawn) [Compound 121] |
| 3.1 | COc1cc(CCC(C)(C)N2Cc3cccc(C(=O)N4CCN(C(=O)OCCOC(C)=O)CC4)c3C2)ccc1O [Compound 305] |
| 4.15 | C[C@@H]1CCN(CCC(C)(C)c2ccc(F)cc2)C1 [Compound 323] |
| 6.5 | COCCCC1CCN(C(C=C(C)C)CC(C)(C)c2ccc(OC(C)C)cc2)CC1 (stereo not drawn) [Compound 171] |
| 3.48 | COC(=O)[C@@H]1CCCN1CCC(C)(C)c1ccccc1 [Compound 293] |
| 3.1 | CC(C)(CCN1CC[C@@H](O)C1)c1ccc(Cl)cc1 [Compound 288] |
| 3.38 | CC(C)=CC(CC(C)(C)c1ccccc1)N1CCNC(=O)C1 (stereo not drawn) [Compound 227] |
| 5.23 | CCOC(=O)C1CCN(C(C=C(C)C)CC(C)(C)c2ccccc2)CC1 (stereo not drawn) [Compound 278] |
| 5.68 | COCC1CCCN1C(C=C(C)C)CC(C)(C)c1ccc(Cl)cc1 (stereo not drawn) [Compound 234] |
| 5.68 | COC[C@H]1CCCN1C(C=C(C)C)CC(C)(C)c1ccc(Cl)cc1 (stereo partly drawn) [Compound 246] |
| 5.95 | COC[C@H]1CCCN1C(C=C(C)C)CC(C)(C)c1ccc(C(F)(F)F)cc1 (stereo partly drawn) [Compound 247] |

same assay, conditions: octanol/water

| logP | SMILES |
| --- | --- |
| 4.53 | COC[C@@H]1CCCN1CCC(C)(C)c1ccc(C(F)(F)F)cc1 [Example 317] |
| 3.89 | CC(C)(CCN1CCC(CO)CC1)c1ccc(C(F)(F)F)cc1 [Example 306] |
